Reference: article PMC11602115 (Journal of Medicinal Chemistry, 2017)
pEC50, pIC50, pKd: −log10 of the molar value. Where two headings read alike, the source gives them in different places.

Tests used:
[1] = biological target: T1, IP (Homo sapiens, UniProt P43119); experiment: HTRF cAMP assay, recombinant human IP receptor stably expressed in CHO-K1 cells; assay type: cell-based; design: expressed in transfected cells
Experimental: (§1) The new compounds were tested for functional agonist activity in a standard (Cisbio) cAMP assay using recombinant IP or DP1 receptors stably expressed in CHO-K1 cells. Clonal cell lines were derived following standard protocols, but receptor expression levels were kept to a minimum to preclude receptor reserve effects.
(§2) For development of cAMP accumulation assays, recombinant IP or DP1 receptors were stably expressed in CHO-K1 cells and clonal cell lines derived following standard protocols. Receptor expression levels were minimized to preclude receptor reserve effects. HTRF cAMP assays were performed according to the manufacturer’s instructions (Cisbio, cAMP Dynamic 2 assay kit; no. 62AM4PEJ). IP receptor-expressing cells were harvested, resuspended in assay buffer (PBS containing 1 mM IBMX and 0.2% BSA) at a density of 200 000 cells per mL, and dispensed into 384-well assay plates (PerkinElmer Proxiplate no. 6008280) at 5 μL per well. Test compounds were solubilized and serially diluted in DMSO using 5-fold dilutions to generate a 10-point dose–response curve with a top concentration of 10 μM. The samples were then further diluted in PBS to achieve a 2× stock. Diluted compounds were then transferred to a triplicate set of assay plates (5 μL per well). After a 1 h incubation at room temperature, 5 μL of cAMP-D2 reagent diluted in lysis buffer was added to each well followed by 5 μL of cryptate reagent. Plates were then incubated at room temperature for 1 h prior to reading. Time-resolved fluorescence measurements were collected on PerkinElmer Envision or BMG Pherastar microplate readers.

[2] = system: human platelet; experiment: Inhibition of ADP-induced human platelet aggregation; assay type: cell-based; conditions: aggregation induced by 2.5 μM ADP, mean of at least two determinations
Experimental: Such aggregated and activated platelets produce vasoactive substances such as thromboxane and serotonin that may cause harmful vasoconstriction and vascular remodeling.[13] […] This secondary assay was carried out as previously described,[14] with aggregation induced by 2.5 μM ADP in the presence or absence of IP receptor agonists.

[3] = Stability in human microsome preparations; assay type: in vitro ADME; conditions: incubation at 37 °C, human microsomes; read-out: human MS, T1/2
From the text: (§3) Table 1 Screening Data for Selected Analogues ^a | column: human and rat MS, T1/2 (min) ^g

[4] = Stability in rat microsome preparations; assay type: in vitro ADME; conditions: incubation at 37 °C, rat microsomes; read-out: rat MS, T1/2
From the text: as §3

[5] = biological target: T2, human DP1 receptor (Homo sapiens, UniProt Q13258); experiment: HTRF cAMP assay, recombinant human DP1 receptor in CHO-K1 cells; assay type: cell-based; conditions: for Emax: CHO-K1, intrinsic activity relative to 1 μM PGD2, read-out: hDP1 % IA
T2 construct: expressed in transfected cells
T2 sequence (Q13258 1-359): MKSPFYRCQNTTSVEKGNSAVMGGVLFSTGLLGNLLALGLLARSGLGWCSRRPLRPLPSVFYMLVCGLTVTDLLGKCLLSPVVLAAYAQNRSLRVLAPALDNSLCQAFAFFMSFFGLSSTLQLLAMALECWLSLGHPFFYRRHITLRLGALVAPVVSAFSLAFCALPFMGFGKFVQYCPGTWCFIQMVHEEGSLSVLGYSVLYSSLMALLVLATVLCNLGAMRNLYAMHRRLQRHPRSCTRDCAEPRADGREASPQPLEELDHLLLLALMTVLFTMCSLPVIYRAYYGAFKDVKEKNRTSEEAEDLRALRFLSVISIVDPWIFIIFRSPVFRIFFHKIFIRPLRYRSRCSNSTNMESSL
Experimental: as §1, §2

[6] = biological target: T3, rat IP (Rattus norvegicus, UniProt P43253); experiment: HTRF cAMP assay, recombinant rat IP receptor; assay type: cell-based; design: expressed in transfected cells
Experimental: as §1, §2

[7] = system: prostaglandin receptors other than DP1; experiment: Panel assays of prostaglandin receptors in melanophores; assay type: cell-based
[8] = biological target: T4, EP3v6 (Homo sapiens, UniProt P43115); experiment: Melanophore dispersion assay, EP3v6; assay type: cell-based; design: expressed in transfected cells; host or cells: melanophores (transient, electroporation); conditions: melanophore dispersion assay (Gi)
T4 sequence (P43115 1-374 isoform P43115-4): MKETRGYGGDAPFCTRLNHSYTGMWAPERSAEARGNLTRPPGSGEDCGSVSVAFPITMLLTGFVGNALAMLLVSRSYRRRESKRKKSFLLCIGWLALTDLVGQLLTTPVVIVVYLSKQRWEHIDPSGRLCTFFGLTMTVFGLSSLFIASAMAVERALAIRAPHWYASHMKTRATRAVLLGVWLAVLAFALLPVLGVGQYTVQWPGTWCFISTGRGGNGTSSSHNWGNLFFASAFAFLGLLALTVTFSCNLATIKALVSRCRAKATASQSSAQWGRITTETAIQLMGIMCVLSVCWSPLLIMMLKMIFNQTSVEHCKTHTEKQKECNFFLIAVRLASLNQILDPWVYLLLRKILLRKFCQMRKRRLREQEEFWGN
Experimental: For the EP3v6 receptor functional assay, melanophores were transfected by electroporation using 20 μg of recombinant human EP3v6 receptor plasmid DNA per 400 μL of cell suspension. Transfected cells were immediately resuspended in fresh growth medium and plated in 384-well clear, polystyrene microplates. Plated cells were incubated at 27 °C for 48 h after transfection in order to achieve optimal receptor expression. To perform the assay, growth medium was removed from the assay plates and replaced with assay buffer (40 μL/well, 0.7× PBS, pH 7.3, supplemented with 20 nM melatonin to induce pigment aggregation). Following a 90 min incubation at room temperature, a 650 nm absorbance reading was collected and test compounds (10 μL per well) were transferred to the assay plates. Plates were incubated for 90 min at room temperature to allow compound-induced pigment redistribution to take place, and final absorbance reading was then collected. Test compounds were solubilized and serially diluted in DMSO, using 5-fold dilutions, to generate a 10-point dose–response curve with a top concentration of 10 μM (final assay concentration). Samples were then further diluted in assay buffer to achieve a 5× stock prior to addition to the assay plates. A SpectraMax absorbance plate reader (Molecular Devices, Inc.) was used for data collection.
(§4) Table Sup2: Data with some comparator compounds in functional assays. […]

[9] = biological target: EP2 (Homo sapiens, UniProt P43116); experiment: cAMP HTRF agonist assay, EP2; assay type: cell-based; conditions: cAMP HTRF agonist assay
From the text: as §4

[10] = biological target: T5, EP1 (Homo sapiens, UniProt P34995); experiment: cAMP HTRF agonist assay, EP1; assay type: cell-based
T5 sequence (P34995 1-402): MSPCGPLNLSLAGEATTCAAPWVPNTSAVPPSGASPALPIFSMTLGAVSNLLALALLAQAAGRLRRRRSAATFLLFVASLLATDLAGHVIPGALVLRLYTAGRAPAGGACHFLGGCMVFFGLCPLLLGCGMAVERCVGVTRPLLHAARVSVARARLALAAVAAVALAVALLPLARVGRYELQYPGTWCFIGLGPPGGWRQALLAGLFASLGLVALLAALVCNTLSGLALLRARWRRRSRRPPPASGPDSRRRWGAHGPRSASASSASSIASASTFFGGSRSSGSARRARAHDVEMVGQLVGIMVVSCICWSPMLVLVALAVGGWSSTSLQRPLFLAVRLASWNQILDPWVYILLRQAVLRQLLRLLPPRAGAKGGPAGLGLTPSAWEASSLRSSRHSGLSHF
From the text: (§5) Table Sup2: Data with some comparator compounds in functional assays.
(§6) Compound DP1 EP1 EP2 EP3v6 EP4
(§7) EC50, µµµµM (% I.A) EC50, µµµµM (% I.A) EC50, µµµµM (% I.A) EC50, µµµµM (% I.A) EC50, µµµµM (% I.A)
(§8) n = 3 n = 2 n = 8 n = 6 n = 6 […]

[11] = biological target: EP4 (Homo sapiens, UniProt P35408); experiment: cAMP HTRF agonist assay, EP4; assay type: cell-based; conditions: cAMP HTRF agonist assay
From the text: as §5, §6, §7, §8

[12] = biological target: T1, IP; experiment: Recombinant human IP receptor cAMP assay after elimination of receptor reserve (transient CHO); assay type: cell-based; design: expressed in transfected cells; conditions: following elimination of receptor reserve
From the text: Additional In Vitro Assays
To determine the potency and efficacy of compounds in cAMP assays in the absence of receptor reserve effects, the cDNA sequence of the human IP receptor was subqcloned into an expression plasmid containing a ubiquitin promoter in place of the more commonly used CMV promoter. The ubiquitin […]
level of receptor expression after transfection into a suitable cell line. This plasmid was transiently transfected into CHO cells using lipofectamine, following standard protocols. The quantity of transfected plasmid DNA was titrated down from 16 µg to 1 ng per transfection using empty vector as carrier DNA.

[13] = system: primary human pulmonary arterial smooth muscle cells; experiment: HTRF cAMP assay in primary human pulmonary arterial smooth muscle cells; assay type: cell-based
Experimental: Additional In Vitro Assays […]
Compounds were also evaluated in HTRF cAMP assays using primary human pulmonary arterial smooth muscle cells (Cell Applications, Inc., #352Kq05a, or ThermoFisher/Gibco, #C0095C) using the same basic assay protocol outlined in the Experimental section. Cells were cultured as recommended by the suppliers, used at low passage and seeded into 384qwell assay plates at a density of 700q900 cell per well

[14] = biological target: monkey IP; experiment: Radioligand binding, monkey IP ([3H]-iloprost); conditions: radioligand, recombinant receptor membranes; read-out: measured Kd, monkey IP
Experimental: (§9) CHO-K1 cells expressing recombinant IP receptors were harvested, washed with ice-cold phosphate buffered saline, pH 7.4 (PBS), and then centrifuged at 48 000g for 20 min at 4 °C. The resulting cell pellet was then resuspended in ice-cold PBS containing 20 mM HEPES, pH 7.4, and 0.1 mM EDTA, homogenized on ice using a Brinkman Polytron, and centrifuged (48 000g for 20 min at 4 °C). This resuspension and centrifugation process was repeated one further time. Crude membrane pellets were stored at −80 °C until used for radioligand binding assays.
(§10) Assay incubations were terminated by rapid filtration through PerkinElmer GF/C filtration plates pretreated with 0.3% PEI, under vacuum pressure using a 96-well Packard filtration apparatus, followed by multiple washes with ice-cold wash buffer (PBS containing 20 mM HEPES and 0.1 mM EDTA, pH 7.4). Plates were then dried at 45 °C for a minimum of 2 h. Finally, 25 μL of BetaScint scintillation cocktail was added to each well and plates were counted in a Packard TopCount scintillation counter. In each competition study, test compounds were dosed at 10 concentrations with triplicate determinations at each test concentration.

[15] = biological target: T3, rat IP; experiment: Radioligand binding, rat IP ([3H]-iloprost); design: expressed in transfected cells; host or cells: CHO-K1 (crude membranes); conditions: radioligand, recombinant receptor membranes; read-out: measured Kd, rat IP
Experimental: as §9
as §10, with “concentration. A reference compound, typically iloprost, was included in every runset for quality control purposes.” for “concentration.”

[16] = biological target: dog IP (Canis lupus familiaris, UniProt A0A8I3MUB8); experiment: Radioligand binding, dog IP ([3H]-iloprost); conditions: radioligand, recombinant receptor membranes; read-out: measured Kd, dog IP
Experimental: as §9
as §10, with “concentration. A reference compound, typically iloprost, was included in every runset for quality control purposes.” for “concentration.”

[17] = HTRF (cAMP) human IP receptor assay; mean of at least three determinations
[18] = HTRF (cAMP) human DP1 receptor assay, mean of at least three determinations, read-out: EC50 hDP1

T3 sequence (P43253 whole entry): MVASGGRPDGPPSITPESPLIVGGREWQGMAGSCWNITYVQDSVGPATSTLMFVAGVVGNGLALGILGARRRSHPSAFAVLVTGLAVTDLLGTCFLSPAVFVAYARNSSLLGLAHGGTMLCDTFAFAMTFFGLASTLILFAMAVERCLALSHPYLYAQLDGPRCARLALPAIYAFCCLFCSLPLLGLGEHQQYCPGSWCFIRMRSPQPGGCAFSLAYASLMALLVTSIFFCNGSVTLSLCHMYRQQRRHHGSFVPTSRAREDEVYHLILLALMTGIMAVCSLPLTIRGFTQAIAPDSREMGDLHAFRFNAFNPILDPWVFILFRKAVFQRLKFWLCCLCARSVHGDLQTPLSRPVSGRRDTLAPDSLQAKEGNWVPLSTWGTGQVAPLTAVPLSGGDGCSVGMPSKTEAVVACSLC
T1 sequence (P43119 whole entry): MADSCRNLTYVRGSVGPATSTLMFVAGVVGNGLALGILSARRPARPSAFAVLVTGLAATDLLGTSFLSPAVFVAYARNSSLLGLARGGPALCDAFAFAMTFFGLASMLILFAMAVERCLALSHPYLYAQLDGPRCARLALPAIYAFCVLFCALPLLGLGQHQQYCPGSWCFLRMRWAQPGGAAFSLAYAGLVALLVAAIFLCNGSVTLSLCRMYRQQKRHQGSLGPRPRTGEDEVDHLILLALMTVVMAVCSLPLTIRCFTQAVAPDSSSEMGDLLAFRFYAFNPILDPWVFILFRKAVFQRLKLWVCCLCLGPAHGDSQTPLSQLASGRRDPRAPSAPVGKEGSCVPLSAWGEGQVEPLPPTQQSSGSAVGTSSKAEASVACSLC
Chain of EP2 (P43116 whole entry): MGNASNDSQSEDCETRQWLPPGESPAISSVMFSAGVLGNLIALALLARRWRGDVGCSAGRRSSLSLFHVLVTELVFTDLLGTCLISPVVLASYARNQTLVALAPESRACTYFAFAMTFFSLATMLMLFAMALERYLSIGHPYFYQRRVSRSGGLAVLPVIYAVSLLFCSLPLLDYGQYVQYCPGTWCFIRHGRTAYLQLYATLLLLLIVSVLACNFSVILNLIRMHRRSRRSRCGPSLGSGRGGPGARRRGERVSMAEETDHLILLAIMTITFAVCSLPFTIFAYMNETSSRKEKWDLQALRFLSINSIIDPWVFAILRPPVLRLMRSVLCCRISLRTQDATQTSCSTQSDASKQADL
Chain of dog IP (A0A8I3MUB8 1-381): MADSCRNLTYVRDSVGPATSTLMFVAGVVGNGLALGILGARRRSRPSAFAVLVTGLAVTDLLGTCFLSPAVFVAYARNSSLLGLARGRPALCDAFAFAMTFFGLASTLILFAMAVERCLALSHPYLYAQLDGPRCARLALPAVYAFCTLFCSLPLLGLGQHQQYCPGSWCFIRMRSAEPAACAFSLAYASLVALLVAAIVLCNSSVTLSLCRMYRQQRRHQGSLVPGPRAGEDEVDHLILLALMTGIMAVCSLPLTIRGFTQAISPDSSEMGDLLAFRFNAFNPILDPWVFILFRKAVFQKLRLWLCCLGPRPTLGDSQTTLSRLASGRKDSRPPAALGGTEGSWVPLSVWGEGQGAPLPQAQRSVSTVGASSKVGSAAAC
Chain of EP4 (P35408 whole entry): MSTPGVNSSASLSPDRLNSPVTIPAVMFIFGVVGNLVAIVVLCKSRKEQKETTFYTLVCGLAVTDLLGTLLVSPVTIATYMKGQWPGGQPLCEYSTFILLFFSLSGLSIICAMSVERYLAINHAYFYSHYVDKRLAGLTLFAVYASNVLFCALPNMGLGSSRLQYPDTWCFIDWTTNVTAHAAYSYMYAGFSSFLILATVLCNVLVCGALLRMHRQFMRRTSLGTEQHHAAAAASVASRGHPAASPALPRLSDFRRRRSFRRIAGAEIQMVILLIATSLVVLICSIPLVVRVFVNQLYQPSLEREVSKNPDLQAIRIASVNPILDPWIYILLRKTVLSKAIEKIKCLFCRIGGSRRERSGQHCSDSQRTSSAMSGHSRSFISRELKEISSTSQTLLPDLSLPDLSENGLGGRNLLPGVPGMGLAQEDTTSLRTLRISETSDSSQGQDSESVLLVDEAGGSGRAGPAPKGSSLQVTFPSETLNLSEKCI

## O=C(O)COC[C@H]1CC[C@H](COC(=O)N(c2ccccc2)c2ccccc2)CC1 [5a, 2-(((1r,4r)-4-((Diphenylcarbamoyloxy)methyl)cyclohexyl)methoxy)acetic Acid]
[1]; CHO-K1; read-out: hIP % IA
  Emax: 77%
[1]; [17]
  pEC50: 7.68
[2]
  pIC50: 7.60
[3]
  half-life: > 1 h
[4]
  half-life: > 1 h
[5]
  Emax: 59%
[5]; [18]
  pEC50: 6.45
[6]; HTRF (cAMP) rat IP receptor assay, mean of at least three determinations
  pEC50: 6.44
[6]; read-out: rIP % IA
  Emax: 89%
[7]
  activity at prostaglandin receptors other than DP1: no activity

## CCCCC[C@H](O)/C=C/[C@H]1[C@H](O)CC(=O)[C@@H]1C/C=C\CCCC(=O)O [PGE2]
[8]
  EP3v6 % I.A: 100%
[5]; cAMP HTRF agonist assay (Gs), Table Sup2, read-out: DP1 EC50
  pEC50: 6.28
[9]
  EP2 % I.A: 84%
[10]
  pEC50: 7.29
  EP1 % I.A: 92%

## CC(C)N(CCCCOCC(=O)O)c1cnc(-c2ccccc2)c(-c2ccccc2)n1 [compound 2, MRE269]
[11]
  pEC50: < 5.00
[1]; CHO-K1, read-out: hIP % IA
  Emax: 60%
[1]; [17]
  pEC50: 7.66
[2]
  pIC50: 6.54
[8]
  pEC50: < 5.00
[5]
  Emax: 80%
[5]; [18]
  pEC50: 6.81
[5]; cAMP HTRF agonist assay (Gs), Table Sup2
  DP1 % I.A: 80%
[12]
  Efficacy (% vs. Iloprost) [95% CI], recombinant IP receptor cAMP: 48 [43, 53] %
[12]; n = 9, read-out: EC50 [95% CI], recombinant IP receptor cAMP
  pEC50: 6.82
[9]
  pEC50: < 5.00
[13]
  Efficacy (% vs. Iloprost) [95% CI], primary human PASMC cAMP: 41 [33, 49] %
[13]; Homo sapiens, PASMC, n = 8, read-out: EC50 [95% CI], primary human PASMC cAMP
  pEC50: 6.74

## [^3H]-iloprost [reference compound]
[14]
  pKd: 7.92
[15]
  pKd: 8.15
[16]
  pKd: 7.81
